Laboratory results taken from patent US7572436B1, “Thionin as an antineoplastic and immunostimulant” (priority 2000, dated 2009).
Several values for one entry are separate records, joined by “and”; a condition that tells them apart may be missing. Equal entries are not always repeated. Where no end group is shown, it is not given here.

Tested on: Balb C splenocytes
Assay: Mitogen assay (^3H-thymidine uptake), murine splenocytes
Assay type: cell-based
Conditions: for CPM of tritiated thymidine incorporated: Balb C splenocytes
Excerpt: Murine spleen cells or human peripheral blood lymphocytes (PBLS) were obtained aseptically as described herein for use in the mitogen assay. When murine splenocytes were used, they were first treated with red cell lysing buffer (0.17 M Tris, 0.144 NH4C1, pH 7.2), washed in RPMI-10 (standard RPMI growth medium, Sigma Chemical Co., St. Louis, Mo., supplemented with 10% fetal bovine serum) and viable cells counted using Trypan Blue exclusion. Human PBLs were isolated from blood using HISTOPAQUE™-1077, a solution of FICOLL™ and sodium diatrizoate (Sigma Chemical Co., St. Louis, Mo.), and subsequent washings with RPMI-5 (RPMI supplemented with 5% fetal bovine serum) to remove platelets. Isolated lymphocytes were resuspended in RPMI-10 and a viable cell yield determined by Trypan Blue exclusion.
Drugs and known mitogenic controls were added in triplicate to a 96-well flat bottom microplate aseptically. The culture medium was RPMI-10. Splenocytes or human-lymphocytes were added at a concentration of 3-4×10^5 cells/well, to a final volume of 200 μl/well. The assay plate was incubated at 37° C. in a 5% CO2 humidified incubator. At 48-50 hours, ^3H-thymidine was added (1 μCi/well), and the plate was harvested approximately 16-18 hours later.
Mitogen assay microplates were harvested using an Inotech plate harvester (Inotech Biosystems International, Inc., Rockville, Md.). Counts per minute (cpm) per well were measured using the Berthold-Inotech Trace 96-plate reader (Inotech AT, Wohlen, Switzerland) and/or a scintillation counter (Packard Tri-carb 2100TR, Packard Instrument Co., Meriden, Conn.). Mitogenic activity was directly determined by comparing cpm levels to controls.
To test whether PT stimulates mitogen activity, splenocytes were incubated for two days with IL-2 (50 units/ml) or KLH (20 μg/ml) in conjunction with PT in the concentrations shown. Figures represent the radioactivity counts of tritiated thymidine taken up during a subsequent 20-hour incubation period of cells incubated with tritiated thymidine in RPMI.

## Pyrularia thionin (KSCCRNTWARNCYNVCRLPGTISREICAKKCDCKIISGTTCPSDYPK; ends and bridges not checked; also: labeled with 125I) [PT]
0.003 μg/ml, RPMI + IL-2 50 units/ml
  CPM of tritiated thymidine incorporated: 2,656 ± 110 CPM
0.003 μg/ml, RPMI + KLH 20 μg/ml
  CPM of tritiated thymidine incorporated: 3,957 ± 134 CPM
0.003 μg/ml, RPMI
  CPM of tritiated thymidine incorporated: 230 ± 6 CPM
0.01 μg/ml PT, GM-CSF (5 ng/ml)
  Cpm, standard mitogen assay: 1,767 Cpm
0.01 μg/ml PT, GM-CSF (20 ng/ml)
  Cpm, standard mitogen assay: 1,254 Cpm
0.01 μg/ml PT, no GM-CSF, BALB C spleen cells
  Cpm, standard mitogen assay: 287 Cpm
0.01 μg/ml, KLH 20 μg/ml
  CPM of tritiated thymidine incorporated: 3,737 ± 134 CPM
0.03 μg/ml, RPMI + IL-2 50 units/ml
  CPM of tritiated thymidine incorporated: 3,017 ± 107 CPM
0.03 μg/ml, RPMI + KLH 20 μg/ml
  CPM of tritiated thymidine incorporated: 4,162 ± 200 CPM
0.03 μg/ml, RPMI
  CPM of tritiated thymidine incorporated: 269 ± 57 CPM
0.1 μg/ml PT, GM-CSF (20 ng/ml)
  Cpm, standard mitogen assay: 1,549 Cpm
0.1 μg/ml, RPMI + IL-2 50 units/ml
  CPM of tritiated thymidine incorporated: 2,910 ± 351 CPM
0.1 μg/ml, RPMI + KLH 20 μg/ml
  CPM of tritiated thymidine incorporated: 4,254 ± 140 CPM and 4,284 ± 140 CPM
0.1 μg/ml, RPMI
  CPM of tritiated thymidine incorporated: 268 ± 74 CPM
0.3 μg/ml, RPMI + IL-2 50 units/ml
  CPM of tritiated thymidine incorporated: 2,395 ± 103 CPM
0.3 μg/ml, RPMI + KLH 20 μg/ml
  CPM of tritiated thymidine incorporated: 3,985 ± 101 CPM and 3,980 ± 101 CPM
0.3 μg/ml, RPMI
  CPM of tritiated thymidine incorporated: 142 ± 10 CPM and 147 ± 10 CPM
1.0 μg/ml, RPMI + IL-2 50 units/ml
  CPM of tritiated thymidine incorporated: 951 ± 122 CPM
1.0 μg/ml, RPMI + KLH 20 μg/ml
  CPM of tritiated thymidine incorporated: 1,742 ± 154 CPM and 1,747 ± 154 CPM
1.0 μg/ml, RPMI
  CPM of tritiated thymidine incorporated: 107 ± 25 CPM
